Data on 21 compounds can be found in patent US20070027143A1, “Novel substituted 2,3-benzodiazepine derivatives” (priority 2003, published 2007).

A word on the melting point: it is the temperature of the solid-liquid transition. `CC(=O)Nc1ccc(C2=NN(c3ccc(Cl)nn3)C(C)Cc3cc4c(cc32)OCO4)cc1` (racemic) [Example 129, (±)-5-(4-Acetylaminophenyl)-7-(3-chloro-pyridazin-6-yl)-8-methyl-8,9-dihydro-7H-1,3-dioxolo-[4,5-h][2,3]benzodiazepine] returned a melting point of 164 to 170 °C. `Cc1nnc(N2N=C(c3ccc(N)cc3)c3cc4c(cc3C[C@H]2C)OCO4)s1` (hydrate or solvate) [Example 86, (R)-5-(4-Aminophenyl)-8-methyl-7-(5-methyl-1,3,4-thiadiazol-2-yl)-8,9-dihydro-7H-1,3-dioxolo-[4,5-h][2,3]benzodiazepine] yielded a melting point of 168 to 170 °C. `CCOC(=O)c1nnc(N2N=C(c3ccc([N+](=O)[O-])c(C)c3)c3cc4c(cc3C[C@H]2C)OCO4)s1` [Example 144, (R)-7-(5-Ethoxycarbonyl-1,3,4-thiadiazol-2-yl)-8-methyl-5-(3-methyl-4-nitrophenyl)-8,9-dihydro-7H-1,3-dioxolo[4,5-h][2,3]benzodiazepine] returned a melting point of 115 to 118 °C.

Compound `CC1Cc2cc3c(cc2C(c2ccc([N+](=O)[O-])cc2)=NN1c1nnc(-c2ccccc2)s1)OCO3` (racemic) [Example 33, (±)-8-Methyl-5-(4-nitrophenyl)-7-(5-phenyl-1,3,4-thiadiazol-2-yl)-8,9-dihydro-7H-1,3-dioxolo[4,5-h][2,3]benzodiazepine] registered a melting point of 210 to 212 °C. For `CC1Cc2cc3c(cc2C(c2ccc(N)cc2)=NN1c1nc(-c2ccccc2)cs1)OCO3` (racemic) [Example 66, (±)-5-(4-Aminophenyl)-7-(4-phenyl-thiazol-2-yl)-8-methyl-8,9-dihydro-7H-1,3-dioxolo-[4,5-h][2,3]benzodiazepine], the melting point is 221 to 223 °C.

The compound `CC1Cc2cc3c(cc2C(c2ccc([N+](=O)[O-])cc2)=NN1c1nnc(CCl)s1)OCO3` (racemic) [Example 34, (±)-7-(5-Chloromethyl-1,3,4-thiadiazol-2-yl)-8-methyl-5-(4-nitrophenyl)-8,9-dihydro-7H-1,3-dioxolo[4,5-h][2,3]benzodiazepine] came in with a melting point of 210 to 211 °C.

In the case of `C[C@@H]1Cc2cc3c(cc2C(c2ccc(N)cc2)=NN1c1cnns1)OCO3` [Example 186, (R)-5-(4-Aminophenyl)-8-methyl-7-(1,2,3-thiadiazol-5-yl)-8,9-dihydro-7H-1,3-dioxolo-[4,5-h][2,3]benzodiazepine], the melting point was in the range of 220 to 221 °C.

`C[C@H]1Cc2cc3c(cc2C(c2ccc(N)cc2)=NN1c1nccs1)OCO3` [Example 62, (S)-5-(4-Aminophenyl)-8-methyl-7-(2-thiazolyl)-8,9-dihydro-7H-1,3-dioxolo[4,5-h][2,3]benzodiazepine] had a melting point of 124 to 128 °C. Regarding `Cc1cc(C2=NN(c3nnc(CO)s3)[C@H](C)Cc3cc4c(cc32)OCO4)ccc1[N+](=O)[O-]` [Example 140, (R)-7-(5-Hydroxymethyl-1,3,4-thiadiazol-2-yl)-8-methyl-5-(3-methyl-4-nitrophenyl)-8,9-dihydro-7H-1,3-dioxolo[4,5-h][2,3]benzodiazepine], the melting point fell in the range of 142 to 145 °C. With `Cc1cnc(N2N=C(c3ccc(N)cc3)c3cc4c(cc3CC2C)OCO4)s1` (racemic) [Example 64, (±)-5-(4-Aminophenyl)-8-methyl-7-(5-methyl-thiazol-2-yl)-8,9-dihydro-7H-1,3-dioxolo-[4,5-h][2,3]benzodiazepine] the figure was 165 to 167 °C. `Cc1nnc(N2N=C(c3ccc(N)c(C)c3)c3cc4c(cc3C[C@H]2C)OCO4)o1` [Example 181, (R)-5-(4-Amino-3-methylphenyl)-8-methyl-7-(5-methyl-1,3,4-oxadiazol-2-yl)-8,9-dihydro-7H-1,3-dioxolo[4,5-h][2,3]benzodiazepine] gave a melting point of 140 to 145 °C. `Nc1ccc(C2=NN(c3nccs3)CCc3cc4c(cc32)OCO4)cc1` [Example 74, 5-(4-Aminophenyl)-7-(2-thiazolyl)-8,9-dihydro-7H-1,3-dioxolo[4,5-h][2,3]benzodiazepine] displayed a melting point of 200 to 204 °C. For `C/C=C/c1nnc(N2N=C(c3ccc(N)c(C)c3)c3cc4c(cc3C[C@H]2C)OCO4)s1` [Example 177, (R)-5-(4-Amino-3-methylphenyl)-8-methyl-7-{5-[1-(1E)-propen-1-yl]-1,3,4-thiadiazol-2-yl}-8,9-dihydro-7H-1,3-dioxolo[4,5-h][2,3]benzodiazepine], the melting point lay within 139 to 143 °C. `CC1Cc2cc3c(cc2C(c2ccc(N)cc2)=NN1c1nnc(-c2ccccc2)s1)OCO3` (racemic) (hydrate or solvate) [Example 91, (±)-5-(4-Aminophenyl)-7-(5-phenyl-1,3,4-thiadiazol-2-yl)-8-methyl-8,9-dihydro-7H-1,3-dioxolo-[4,5-h][2,3]benzodiazepine] returned a melting point of 228 to 230 °C. With `CC1Cc2cc3c(cc2C(c2ccc(N)cc2)=NN1c1nncs1)OCO3` (racemic) (hydrate or solvate) [Example 83, (±)-5-(4-Aminophenyl)-8-methyl-7-(1,3,4-thiadiazol-2-yl)-8,9-dihydro-7H-1,3-dioxolo-[4,5-h][2,3]benzodiazepine], the melting point is 192 to 194 °C. The same measure for `CC(=O)OCc1nnc(N2N=C(c3ccc([N+](=O)[O-])c(C)c3)c3cc4c(cc3C[C@H]2C)OCO4)s1` [Example 141, (R)-7-(5-Acetoxymethyl-1,3,4-thiadiazol-2-yl)-8-methyl-5-(3-methyl-4-nitrophenyl)-8,9-dihydro-7H-1,3-dioxolo[4,5-h][2,3]benzodiazepine]: 110 to 115 °C.

`CCCCCCc1nnc(N2N=C(c3ccc([N+](=O)[O-])c(C)c3)c3cc4c(cc3C[C@H]2C)OCO4)s1` [Example 147, (R)-7-(5-Hexyl-1,3,4-thiadiazol-2-yl)-8-methyl-5-(3-methyl-4-nitrophenyl)-8,9-dihydro-7H-1,3-dioxolo[4,5-h][2,3]benzodiazepine] came in with a melting point of 217 to 224 °C. `Cc1cc(C2=NN(c3nnc(CN)s3)[C@H](C)Cc3cc4c(cc32)OCO4)ccc1N` [Example 176, (R)-5-(4-Amino-3-methylphenyl)-7-(5-aminomethyl-1,3,4-thiadiazol-2-yl)-8-methyl-8,9-dihydro-7H-1,3-dioxolo[4,5-h][2,3]benzodiazepine] yielded a melting point of 139 to 140 °C. Compound `CC1Cc2cc3c(cc2C(c2ccc(N)cc2)=NN1c1ccc(Cl)nn1)OCO3` (racemic) [Example 112, (±)-5-(4-Aminophenyl)-7-(3-chloropyridazin-6-yl)-8-methyl-8,9-dihydro-7H-1,3-dioxolo-[4,5-h][2,3]benzodiazepine] gave a melting point of 164 to 166 °C. Consider `CC1Cc2cc3c(cc2C(c2ccc([N+](=O)[O-])cc2)=NN1c1nc(=O)n(C2CC2)s1)OCO3` (racemic) [Example 47, (±)-7-(2-Cyclopropyl-3-oxo-2,3-dihydro-1,2,4-thiadiazol-5-yl)-8-methyl-5-(4-nitrophenyl)-8,9-dihydro-7H-1,3-dioxolo[4,5-h][2,3]benzodiazepine], for which the melting point lay in the range of 246 to 247 °C. The compound `CC(=O)Nc1ccc(C2=NN(C3=NCCS3)C(C)Cc3cc4c(cc32)OCO4)cc1` (racemic) [Example 122, (±)-5-(4-Acetylaminophenyl)-7-(4,5-dihydro-thiazol-2-yl)-8-methyl-8,9-dihydro-7H-1,3-dioxolo-[4,5-h][2,3]benzodiazepine] showed a melting point of 211 to 213 °C.
